# Where no end group is shown, it is not given here. The star is where a group is joined. Octanoyl = CCCCCCCC(=O)*
# Columns and labels:
# CD73 = experiment: Jejunal CD73 mRNA expression by real time PCR; type: in vivo, rat; conditions: jejunum, Day 7 after 10 Gy WBI; vehicle decreased by 62%
# Protocol: (§1) Animal model of whole body irradiation. Rats were exposed to whole body irradiation (WBI) of 10 Gray (Gy) using a Gammacell® 1000 Irradiator (Atomic Energy of Canada Ltd) [radiation source: Cesium-137 (^137Cs)] delivered at a dose rate of about 2.5 GY/min. The animals were sedated with intra-peritoneal pentobarbital (40 mg/kg BW) prior to irradiation. During radiation, the container rotated continuously in front of the radiation source for even exposure. The animals were then returned to their cages, and food and water were provided.
# Blood and Tissue Collection after WBI. Rats exposed to 10 Gy WBI were treated with 20 nmol/rat human ghrelin once a day for 6 days starting at 24 h after radiation. At the 7th day, rats were euthanized, and blood, liver and the small intestine were removed under sterile conditions. The blood was allowed to clot and following centrifugation, the serum was transferred into pyrogenic free sterile tubes, and stored at −80° C. until further analysis. Liver (0.25 g) was snap-frozen in liquid nitrogen and stored at −80° C. for subsequent bacterial translocation analysis. Small intestine, 10-15 cm of the ileum, was harvested for gut permeability studies, 10 cm of jejunum was collected for histopathology, and the remaining 10 cm jejunal segment each was collected for RNA and protein analyses.
# Total RNA extraction and real time PCR. […]
# Liver 16S rRNA = experiment: Bacterial translocation, liver 16S rRNA real time PCR; type: in vivo; conditions: Day 7 after 10 Gy WBI; 20 nmol/rat for 6 days from 24 h
# Protocol: as §1
# Blood and Tissue Collection after WBI. Rats exposed to 10 Gy WBI were treated with 20 nmol/rat human ghrelin once a day for 6 days starting at 24 h after radiation. […]
# DNA isolation and total bacteria quantification. […] Bacterial quantification was performed using 16S rRNA gene-targeted primer, forward: 5′-AAC GCG AAG AAC CTT AC-3′ (SEQ ID NO:2) and reverse: 5′-CGG TGT GTA CAA GAC CC-3′ (SEQ ID NO:3). […] The PCR conditions for total bacterial quantification were 95° C. for 1 min and 40 cycles of 95° C. for 20 sec and 60° C. for 1 min. […] Serially diluted genomic DNA of bacterial isolates was used as real time PCR control for bacterial quantification. A standard curve was generated from the bacterial DNA control and we consistently detected between 100 ng to 0.1 pg E. coli DNA. Bacterial counts were expressed as ng/mg liver tissue.
# [1] = system: intestinal crypt apoptosis; experiment: Intestinal TUNEL staining after WBI; type: in vivo, rat; conditions: jejunum, Day 7 after 10 Gy WBI; vehicle increased by 638% from sham
# Protocol: as §1
# Blood and Tissue Collection after WBI. Rats exposed to 10 Gy WBI were treated with 20 nmol/rat human ghrelin once a day for 6 days starting at 24 h after radiation. At the 7th day, rats were euthanized, and blood, liver and the small intestine were removed under sterile conditions. The blood was allowed to clot and following centrifugation, the serum was transferred into pyrogenic free sterile tubes, and stored at −80° C. until further analysis. […]
# TUNEL staining. The presence of apoptotic cells in the gut sections was assessed at the 7th day following WBI using a terminal deoxynucleotide transferase dUTP nick-end labeling (TUNEL) staining kit (Roche Diagnostics, Indianapolis, Ind.). […] TUNEL-positive cells in crypt were counted in 10 fields/section under a fluorescence microscope (200×), and the number of cells/crypt are shown.
# pAkt = experiment: Western blot of jejunal pAkt expression; type: in vivo, rat; conditions: jejunum, Day 7 after 10 Gy WBI; versus vehicle
# Protocol: as §1
# Blood and Tissue Collection after WBI. Rats exposed to 10 Gy WBI were treated with 20 nmol/rat human ghrelin once a day for 6 days starting at 24 h after radiation. At the 7th day, rats were euthanized, and blood, liver and the small intestine were removed under sterile conditions. […]
# Western blot analysis. […] After overnight incubation with the primary antibodies at 4° C., the membranes were washed with TBS-T Immunoreactive bands were detected using HRP-linked secondary antibody (Southern Biotech, Birmingham, Ala.) and the Enhanced Chemiluminescence (ECL) Western blot detection kit (Amersham, Piscataway, N.J.). The immunoblots were exposed to X-ray film and analyzed with the NIH Image J analysis system. […]
substance,measurement,setting,value
ghrelin (GSS(Octanoyl)FLSPEHQRVQQRKESKKPPAKLQPR; listed as Homo sapiens) [human ghrelin],"CD73 mRNA expression, restored by",CD73,70%
same,"liver 16S rRNA gene (bacterial counts), reduction from Vehicle",Liver 16S rRNA,61%
same,"apoptotic (TUNEL positive) cells/crypt, reduction",[1],62%
same,intestinal pAkt expression,pAkt,further significantly increased

# Reference: patent US10265383B2, “Treatment of radiation injury using ghrelin” (priority 2014, dated 2019)
